From BindingDB's records for doi:10.1016/S1074-5521(02)00240-5 (Nippon Roche Research Center, 2002) come the findings set out here.

Experiment [1] addresses T1, Glycylpeptide N-tetradecanoyltransferase (Candida albicans (strain SC5314 / ATCC MYA-2876), UniProt P30418).
T1 sequence (P30418 whole entry): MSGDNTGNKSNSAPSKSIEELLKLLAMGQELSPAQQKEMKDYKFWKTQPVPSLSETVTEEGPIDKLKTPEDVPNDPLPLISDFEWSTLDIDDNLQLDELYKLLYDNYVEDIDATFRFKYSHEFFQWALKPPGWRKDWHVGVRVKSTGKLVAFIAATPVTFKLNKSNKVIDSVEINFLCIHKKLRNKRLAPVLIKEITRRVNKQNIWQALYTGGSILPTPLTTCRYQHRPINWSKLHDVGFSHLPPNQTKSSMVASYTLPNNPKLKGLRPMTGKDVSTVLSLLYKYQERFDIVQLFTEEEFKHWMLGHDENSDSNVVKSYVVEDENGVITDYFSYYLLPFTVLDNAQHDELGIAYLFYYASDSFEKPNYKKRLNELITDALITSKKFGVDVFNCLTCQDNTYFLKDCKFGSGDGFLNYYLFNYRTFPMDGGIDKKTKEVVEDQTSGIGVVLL
Description: Inhibition Assay.

Experiment [2] addresses T2, Glycylpeptide N-tetradecanoyltransferase 1 (Homo sapiens, UniProt P30419).
T2 sequence (P30419 whole entry): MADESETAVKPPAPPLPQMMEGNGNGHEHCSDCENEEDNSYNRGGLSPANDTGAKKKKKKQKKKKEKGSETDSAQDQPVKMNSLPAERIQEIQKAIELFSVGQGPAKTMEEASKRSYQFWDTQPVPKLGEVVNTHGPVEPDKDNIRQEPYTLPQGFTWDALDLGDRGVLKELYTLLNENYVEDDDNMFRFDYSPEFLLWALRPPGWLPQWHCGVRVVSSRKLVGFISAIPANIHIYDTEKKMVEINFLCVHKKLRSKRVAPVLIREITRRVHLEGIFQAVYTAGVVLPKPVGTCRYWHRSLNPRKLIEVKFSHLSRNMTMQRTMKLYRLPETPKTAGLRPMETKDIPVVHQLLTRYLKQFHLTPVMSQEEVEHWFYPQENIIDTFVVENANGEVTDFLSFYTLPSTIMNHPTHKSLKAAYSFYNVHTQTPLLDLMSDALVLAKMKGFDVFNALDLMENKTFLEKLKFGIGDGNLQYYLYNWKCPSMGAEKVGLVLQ
Description: Inhibition Assay.

The structures appear in SMILES notation. Where only a bound is given, the exact number is not on record here.

The term IC50 denotes the concentration that gives 50% inhibition. Higher therefore signals weaker potency in that assay. `COc1ccc(C(=O)NN=Cc2ccccc2C(=O)O)cc1OC` [2-[(veratroylhydrazono)methyl]benzoic acid]: in experiment [1], half-maximal inhibition (IC50) was put at 830 nM. That is a sub-micromolar value.

On to `O=C(Nc1ccc(S(=O)(=O)NC2=NCCCCC2)cc1)C1COc2ccccc2O1` (stereo not drawn) [MLS000761278], for which the IC50 in experiment [2] is above 570000 nM; in experiment [1], 1100 nM.
